# In patent publication US20050282818A1, “Ubiquitin ligase inhibitors” (Rigel Pharmaceuticals, Inc., priority 2004, published 2005):
# Key:
# TRAF6/Uev1A/Ubc13 = target: T1, TRAF6/Uev1A/Ubc13 (Homo sapiens, UniProt Q9Y4K3); assay: TRAF6/Uev1A/Ubc13 plate-based ubiquitin ligase assay; type: biochemical
# T1 sequence (Q9Y4K3 1-522): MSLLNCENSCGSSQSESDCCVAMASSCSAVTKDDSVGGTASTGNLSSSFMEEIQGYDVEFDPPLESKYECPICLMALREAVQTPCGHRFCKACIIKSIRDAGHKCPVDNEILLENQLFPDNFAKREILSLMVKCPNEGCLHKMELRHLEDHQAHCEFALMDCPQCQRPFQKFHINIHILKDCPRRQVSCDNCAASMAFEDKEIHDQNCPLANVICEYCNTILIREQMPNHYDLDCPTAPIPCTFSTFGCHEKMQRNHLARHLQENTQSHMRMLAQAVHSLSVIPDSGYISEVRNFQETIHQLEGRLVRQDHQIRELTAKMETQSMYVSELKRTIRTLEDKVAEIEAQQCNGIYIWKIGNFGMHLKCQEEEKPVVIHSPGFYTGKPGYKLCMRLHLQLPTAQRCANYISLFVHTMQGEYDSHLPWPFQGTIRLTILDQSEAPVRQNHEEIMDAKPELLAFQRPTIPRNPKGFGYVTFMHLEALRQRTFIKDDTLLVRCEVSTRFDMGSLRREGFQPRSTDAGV
# Outline: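 Ligase activity was read as luminescence from anti-Flag/HRP detection of Flag-ubiquitin bound to casein-blocked Ni-plates alongside His-ubiquitin after a 1 h room-temperature reaction. Buffer: 62.5 mM Tris pH 7.5, 6.25 mM MgCl2, 1.0 mM DTT, 2 μM ATP; E1, Uev1a/Ubc13 and TRAF6 added last to start. IC50s derived across compound concentrations.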
# [1] = test system: ICAM-1 expression in A549 cells; assay: ICAM assay (IL-1 induced ICAM-1/CD54 expression in A549 cells); type: cell-based, human; conditions: Homo sapiens, A549, ICAM assay
# Outline: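 Luminescent immunostaining (anti-CD54, then anti-mouse IgG, 1 h) quantifies ICAM-1 on A549 cells induced 4 h at 37° C by IL-1 (4 μl of 25 ng/ml added). Compound is added 1 h before the cytokine to cells plated overnight at 10,000 per well.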
# APC11/APC2 = APC11/APC2 (Homo sapiens, UniProt Q9NYG5+Q9UJX6); assay: APC-11/APC-2 ligase assay (APC auto ubiquitination); type: biochemical; conditions: APC assay
# Chain of APC11/APC2 (Q9NYG5 whole entry): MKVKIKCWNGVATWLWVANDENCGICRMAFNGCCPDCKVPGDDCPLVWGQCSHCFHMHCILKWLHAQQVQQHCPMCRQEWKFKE
# Chain of APC11/APC2 (Q9UJX6 whole entry): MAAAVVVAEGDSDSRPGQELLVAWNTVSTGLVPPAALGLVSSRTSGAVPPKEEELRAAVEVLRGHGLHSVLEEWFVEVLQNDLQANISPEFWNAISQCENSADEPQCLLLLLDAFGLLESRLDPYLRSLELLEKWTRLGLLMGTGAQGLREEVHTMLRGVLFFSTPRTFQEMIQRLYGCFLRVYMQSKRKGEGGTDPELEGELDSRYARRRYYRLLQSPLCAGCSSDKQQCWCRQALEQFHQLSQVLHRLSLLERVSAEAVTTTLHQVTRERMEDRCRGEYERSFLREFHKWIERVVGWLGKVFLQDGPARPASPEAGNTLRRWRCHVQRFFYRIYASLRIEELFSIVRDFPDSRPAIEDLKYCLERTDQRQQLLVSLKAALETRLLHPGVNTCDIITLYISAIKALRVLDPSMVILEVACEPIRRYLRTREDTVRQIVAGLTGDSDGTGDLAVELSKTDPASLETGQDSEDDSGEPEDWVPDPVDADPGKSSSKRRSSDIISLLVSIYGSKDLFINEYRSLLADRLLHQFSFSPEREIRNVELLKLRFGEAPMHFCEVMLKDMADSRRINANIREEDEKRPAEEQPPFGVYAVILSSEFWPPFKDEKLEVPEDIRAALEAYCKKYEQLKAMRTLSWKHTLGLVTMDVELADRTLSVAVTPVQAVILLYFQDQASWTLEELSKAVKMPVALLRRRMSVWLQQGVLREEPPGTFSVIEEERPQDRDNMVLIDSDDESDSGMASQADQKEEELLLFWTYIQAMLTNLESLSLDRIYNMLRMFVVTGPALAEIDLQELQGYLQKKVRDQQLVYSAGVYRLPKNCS
# Outline: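 His-tagged APC was captured on nickel plates with human E1 (5 ng/well), UbcH5c (20 ng/well), APC (100 ng/well) and Flag-ubiquitin (100 ng/well) in a Tris pH 7.6 reaction buffer containing 2.5 mM ATP, for 1 hour at room temperature. Read-out was anti-Flag/HRP chemiluminescence. IC50 was set against a DMSO control, typically from 6 or 8 concentrations.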
SMILES,IC50 (TRAF6/Uev1A/Ubc13) [µM],IC50 [1] [µM],IC50 (APC11/APC2) [µM]
"FC(F)(F)c1ccc(-c2cc(-c3ccc(C(F)(F)F)cc3)c3nonc3c2)cc1 [compound 420, 4,6-bis(4-[trifluoromethyl]phenyl)-2,1,3-benzoxadiazole]",≥ 20,≥ 20,≥ 20
"O=[N+]([O-])c1cc(-c2ccc(C(F)(F)F)cc2C(F)(F)F)c2nonc2c1 [compound 477, 4-(2,4-bis[trifluoromethyl]phenyl)-6-nitro-2,1,3-benzoxadiazole]",≥ 20,1 to 20,1 to 20
"CC(=O)c1ccc(-c2ccc([N+](=O)[O-])c3nonc23)cc1 [compound 441, 1-(4-[7-nitro-2,1,3-benzoxadiazol-4-yl]phenyl)ethanone]",1 to 20,1 to 20,1 to 20
"O=[N+]([O-])c1ccc(-c2ccccc2F)c2nonc12 [compound 437, 7-(2-fluorophenyl)-4-nitro-2,1,3-benzoxadiazole]",≥ 20,1 to 20,1 to 20
"O=C(O)c1ccc(NS(=O)(=O)c2ccc(Cl)c3nonc23)cc1 [compound 399, 4-(7-chloro-2,1,3-benzoxadiazole-4-sulfonamido)benzoic acid]",≥ 20,≥ 20,≥ 20
"Cc1cccc(-c2cc(N3CCCCC3)c([N+](=O)[O-])c3nonc23)c1 [compound 432, 7-(3-methylphenyl)-4-nitro-5-(piperidin-1-yl)-2,1,3-benzoxadiazole]",≥ 20,≥ 20,≥ 20
"FC(F)(F)c1cccc(-c2cc(-c3cccc(C(F)(F)F)c3)c3nonc3c2)c1 [compound 418, 4,6-bis(3-[trifluoromethyl]phenyl)-2,1,3-benzoxadiazole]",≥ 20,≥ 20,≥ 20
"O=S(=O)(Nc1ccccc1Br)c1ccc(Cl)c2nonc12 [compound 424, N-(2-bromophenyl)-7-chloro-2,1,3-benzoxadiazole-4-sulfonamide]",≥ 20,≥ 20,≥ 20
"COc1ccc(C)cc1NS(=O)(=O)c1ccc(Cl)c2nonc12 [compound 381, 7-chloro-N-(2-methoxy-5-methylphenyl)-2,1,3-benzoxadiazole-4-sulfonamide]",≥ 20,1 to 20,≥ 20
"O=S(=O)(Nc1ccccc1F)c1ccc(N2CCOCC2)c2nonc12 [compound 372, N-(2-fluorophenyl)-7-(morpholin-4-yl)-2,1,3-benzoxadiazole-4-sulfonamide]",≥ 20,≥ 20,≥ 20
"COc1ccccc1-c1cc([N+](=O)[O-])cc2nonc12 [compound 482, 4-(2-methoxyphenyl)-6-nitro-2,1,3-benzoxadiazole]",≥ 20,≥ 20,≥ 20
"O=S(=O)(Nc1ccccc1F)c1ccc(Cl)c2nonc12 [compound 345, 7-chloro-N-(2-fluorophenyl)-2,1,3-benzoxadiazole-4-sulfonamide]",≥ 20,1 to 20,≥ 20
"O=[N+]([O-])c1ccc(-c2ccc(C(F)(F)F)cc2)c2nonc12 [compound 311, 4-Nitro-7-[4-(trifluoromethyl)phenyl]-2,1,3-benzoxadiazole]",1 to 20,1 to 20,1 to 20
"O=S(=O)(Nc1cccc2ccccc12)c1c(Cl)cc(Nc2cccc3ccccc23)c2nonc12 [compound 417, 5-chloro-N-(naphthalen-1-yl)-7-(naphthalen-1-ylamino)-2,1,3-benzoxadiazole-4-sulfonamide]",1 to 20,1 to 20,1 to 20
"O=S(=O)(Nc1ccccc1F)c1ccc(Nc2ccccc2F)c2nonc12 [compound 346, N-(2-fluorophenyl)-7-(2-fluorophenylamino)-2,1,3-benzoxadiazole-4-sulfonamide]",≥ 20,≥ 20,1 to 20
"Cc1cc(C)c(NS(=O)(=O)c2ccc(Cl)c3nonc23)c(C)c1 [compound 355, 7-chloro-N-mesityl-2,1,3-benzoxadiazole-4-sulfonamide]",≥ 20,≥ 20,≥ 20

# Other lines, results leading:
IC50 (TRAF6/Uev1A/Ubc13) [µM],IC50 [1] [µM],IC50 (APC11/APC2) [µM],SMILES
1 to 20,1 to 20,1 to 20,"O=[N+]([O-])c1ccc(-c2ccc3c(c2)OCO3)c2nonc12 [compound 467, 4-(benzodioxol-5-yl)-7-nitro-2,1,3-benzoxadiazole]"
≥ 20,≥ 20,≥ 20,"Cc1cccc(-c2cc(-c3cccc(C)c3)c3nonc3c2)c1 [compound 419, 4,6-bis(3-methylphenyl)-2,1,3-benzoxadiazole]"
1 to 20,≥ 20,1 to 20,"Nc1cccc2c(NS(=O)(=O)c3ccc(Sc4cccc5cccnc45)c4nonc34)cccc12 [compound 390, N-(5-aminonaphthalen-1-yl)-7-(quinolin-8-ylthio)-2,1,3-benzoxadiazole-4-sulfonamide]"
≥ 20,1 to 20,1 to 20,"Cc1cccc(-c2ccc([N+](=O)[O-])c3nonc23)c1C [compound 470, 4-(2,3-dimethylphenyl)-7-nitro-2,1,3-benzoxadiazole]"
≥ 20,≥ 20,≥ 20,"Oc1ccc2c(c1)cc(Sc1cccc3cccnc13)c1nonc12 [compound 425, 4-(quinolin-8-ylthio)naphtho[2,1-c][1,2,5]oxadiazol-7-ol]"
≥ 20,≥ 20,1 to 20,"COc1ccccc1Sc1ccc(S(=O)(=O)Nc2cccc(F)c2F)c2nonc12 [compound 378, N-(2,3-difluorophenyl)-7-([2-methoxyphenyl]thio)-2,1,3-benzoxadiazole-4-sulfonamide]"
1 to 20,1 to 20,≥ 20,"O=[N+]([O-])c1ccc(-c2ccc(F)cc2)c2nonc12 [compound 442, 4-nitro-7-(4-fluorophenyl)-2,1,3-benzoxadiazole]"
≥ 20,≥ 20,≥ 20,"O=S(=O)(Nc1ccncn1)c1ccc(Cl)c2nonc12 [compound 374, 7-chloro-N-1,3-pyrimidin-4-yl-2,1,3-benzoxadiazole-4-sulfonamide]"
1 to 20,≥ 20,1 to 20,"O=[N+]([O-])c1ccc(-c2ccc(C(F)(F)F)cc2C(F)(F)F)c2nonc12 [compound 312, 4-[2,4-Bis(trifluoromethyl)phenyl]-7-nitro-2,1,3-benzoxadiazole]"
≥ 20,≥ 20,≥ 20,"O=S(=O)(Nc1ccc(F)cc1F)c1ccc(Nc2ccc(F)cc2F)c2nonc12 [compound 371, N-(2,4-difluorophenyl)-7-([2,4-difluorophenyl]amino)-2,1,3-benzoxadiazole-4-sulfonamide]"
≥ 20,1 to 20,1 to 20,"O=[N+]([O-])c1ccc(-c2cccc3ccccc23)c2nonc12 [compound 469, 4-(naphthalen-1-yl)-7-nitro-2,1,3-benzoxadiazole]"
≥ 20,1 to 20,≥ 20,"COc1cccc(NS(=O)(=O)c2ccc(Cl)c3nonc23)c1OC [compound 410, 7-chloro-N-(2,3-dimethoxyphenyl)-2,1,3-benzoxadiazole-4-sulfonamide]"
1 to 20,1 to 20,1 to 20,"O=S(=O)(Nc1ccc(OS(=O)(=O)c2ccc(Cl)c3nonc23)c2ccccc12)c1ccc(Cl)c2nonc12 [compound 394, 4-(7-chloro-2,1,3-benzoxadiazole-4-sulfonamido)naphthalen-1-yl 7-chloro-2,1,3-benzoxadiazole-4-sulfonate]"
≥ 20,1 to 20,≥ 20,"Cc1c(NS(=O)(=O)c2ccc(Cl)c3nonc23)cccc1C(F)(F)F [compound 350, 7-chloro-N-(2-methyl-3-[trifluoromethyl]phenyl)-2,1,3-benzoxadiazole-4-sulfonamide]"
≥ 20,1 to 20,1 to 20,"Cc1ccc(-c2ccc([N+](=O)[O-])c3nonc23)cc1 [compound 468, 4-(4-methylphenyl)-7-nitro-2,1,3-benzoxadiazole]"
≥ 20,≥ 20,≥ 20,"O=[N+]([O-])c1cc(-c2cccc3cccnc23)c2nonc2c1 [compound 483, 6-nitro-4-(quinolin-8-yl)-2,1,3-benzoxadiazole]"
